Laboratory results taken from patent US5763625A, “Synthesis and use of β-lapachone analogs” (priority 1995, dated 1998).
Where two headings read alike, the source gives them in different places.

What was measured:
[1] = Toxicity to unirradiated confluence-arrested U1-Mel cells; details: human
[2] = test system: human radioresistant melanoma (U1-Mel) cells; assay: Radiosensitization of X-irradiated confluence-arrested U1-Mel cells (survival)
Excerpt: Another set of confluence-arrested U1-Mel cells were irradiated and plated immediately for survival to prevent repair (i.e., NPT). Survival levels were corrected for loss of plating efficiency due to prolonged confluence-arrest and drug exposures alone.
A set of X-irradiated U1-Mel cells were trypsinized and replaced immediately after radiation to determine the survival of cells not allowed to repair (i.e., NPT).

[3] = test system: Topo I enzyme activity in U1-Mel cells; assay: Down-regulation of Topo I activity in irradiated U1-Mel cells with ADPRT inhibitors; format: cell-based, human; details: 5 μM, 1 hour prior to or 4 hours immediately after 400 cGy
[4] = in vitro; details: human, u1-mel cells
[5] = target: T1, purified human Topo I (Homo sapiens, UniProt P11387); assay: Topo I inhibition, DNA unwinding assay; format: biochemical
T1 sequence (P11387 1-765): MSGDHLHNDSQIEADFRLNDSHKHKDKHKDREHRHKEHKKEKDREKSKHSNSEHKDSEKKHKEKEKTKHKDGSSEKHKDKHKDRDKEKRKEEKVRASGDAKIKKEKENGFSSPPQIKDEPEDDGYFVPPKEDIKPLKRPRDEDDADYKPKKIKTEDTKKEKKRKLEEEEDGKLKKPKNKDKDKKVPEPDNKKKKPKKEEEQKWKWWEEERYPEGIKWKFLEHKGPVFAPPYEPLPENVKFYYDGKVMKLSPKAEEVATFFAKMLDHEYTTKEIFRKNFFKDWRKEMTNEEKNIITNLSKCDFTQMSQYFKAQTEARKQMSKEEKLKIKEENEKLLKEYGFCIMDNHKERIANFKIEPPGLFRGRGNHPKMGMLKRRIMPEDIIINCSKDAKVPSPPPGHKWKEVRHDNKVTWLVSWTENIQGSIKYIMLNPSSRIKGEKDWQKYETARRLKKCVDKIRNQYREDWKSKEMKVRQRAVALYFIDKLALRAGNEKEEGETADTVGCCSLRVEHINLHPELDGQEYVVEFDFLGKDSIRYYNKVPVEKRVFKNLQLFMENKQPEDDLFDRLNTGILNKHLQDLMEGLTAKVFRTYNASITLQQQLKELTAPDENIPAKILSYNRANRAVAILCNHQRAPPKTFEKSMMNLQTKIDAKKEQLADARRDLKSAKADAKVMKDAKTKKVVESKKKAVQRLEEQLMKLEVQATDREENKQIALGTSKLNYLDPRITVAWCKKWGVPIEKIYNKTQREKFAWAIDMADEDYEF

[6] = Water solubility; format: physicochemical
[7] = Stability in air, water or DMSO; details: solubilized in water or DMSO
[8] = test system: Rous sarcoma virus; details: Schaffner-Sabba et al., J. Med. Chem 27: 990-994, 1984; cited from earlier work
[9] = 100 μM, 4 Hr posttreatment after X-rays
[10] = 100 μM, 4 Hr posttreatment, 1% survival
[11] = 100 μM, 4 Hr posttreatment, 10% survival
[12] = 10 μM, 4 Hr posttreatment after X-rays
[13] = 10 μM, 4 Hr posttreatment, 1% survival
[14] = 10 μM, 4 Hr posttreatment, 10% survival
[15] = at 10 μM, Table 3 footnote, survival level not stated
[16] = 2 μM, 4 Hr posttreatment after X-rays
[17] = 4 μM, 4 Hr posttreatment after X-rays
[18] = 4 μM, 4 Hr posttreatment, 1% survival
[19] = 4 μM, 4 Hr posttreatment, 10% survival

## CCC1(O)C(=O)OCc2c1cc1n(c2=O)Cc2cc3cc4c(cc3nc2-1)OCO4 (stereo not shown) [10,11-Methylonedioxy-]
[1]
  viability at 4 h, 10 µM: 62 ± 7%
[2]
  DER Values 1%: 1.4 ± 0.1
  DER Values 10%: 1.2 ± 0.2
  Do: 254 ± 5 cGy
  Dq: 345 ± 3 cGy

## NC(=O)c1cccc(N)c1 [3-ABA, 3-aminobenzamide]
[3]
  effect on down-regulation of Topo I enzyme activity: prevented the down-regulation

## CCC1(O)C(=O)OCc2c1cc1n(c2=O)Cc2cc3c(NC(=O)CN)cccc3nc2-1 (racemic) [9-Glycinamido-20(RS)-]
[1]
  viability at 4 h, 100 µM: 61 ± 3%
[2]; [9]
  Do: 278 ± 6 cGy
  Dq: 352 ± 4 cGy
[2]; [10]
  DER Values 1%: 1.4 ± 0.4
[2]; [11]
  DER Values 10%: 1.1 ± 0.1

## CCC1(N)C(=O)OCc2c1cc1n(c2=O)Cc2cc3ccccc3nc2-1 (racemic) [20-Amino-20(RS)-Deoxy(RS)]
[4]
  viability at 4 h, 10 µM: 64 ± 3%

## Cc1cccc2c1CCNC2=O [PD 1]
[4]
  viability at 5 h, 0.5 µM: 92 ± 1.6%
[2]; 0.5 μM, five hour exposure, 300 min
  survival of X-irradiated U1-Mel cells: 5±0.2%

## CCC1(O)C(=O)OCc2c1cc1n(c2=O)Cc2cc3c(N)cccc3nc2-1 (racemic) [9-Amino-20(RS)-, 9-aminocamptothecin]
[4]
  viability at 4 h, 10 µM: 67 ± 5%
[2]; [12]
  Do: 109 ± 2 cGy
  Dq: 110 ± 2 cGy
[2]; [13]
  DER Values 1%: 2.9 ± 0.4
[2]; [14]
  DER Values 10%: 2.5 ± 0.3
[2]; [15]
  dose enhancement ratios (DERs): 2.9 ± 0.4

## CC[C@@]1(O)C(=O)OCc2c1cc1n(c2=O)Cc2cc3ccccc3nc2-1 [camptothecin]
[5]; drug added to the DNA before the enzyme
  estimated Ki, Topo I: 350 nM
[1]
  viability at 4 h, 4 µM: 54 ± 2%
[2]
  DER Values 1%: 2.1 ± 0.6
  DER Values 10%: 1.8 ± 0.1
  Do: 162 ± 7 cGy
  Dq: 132 ± 2 cGy
  dose enhancement ratios (DERs): 2.1±0.6

## CC1(C)OC2=C(CC1O)C(=O)C(=O)c1ccccc12 (stereo not drawn) [3-hydroxy-β-lapachone]
[6]
  water solubility: water-soluble

## C=CCC1CC2=C(OC1(C)C)c1ccccc1C(=O)C2=O (stereo not shown)
[5]; DNA unwinding assay
  estimated Ki, Topo I: approximately 100 nM
  lowest concentration inhibiting Topo I (as little as): 10 nM
[4]
  viability at 4 h, 10 µM: 89 ± 3%
[7]
  time until loss of stability: > 4 days
[2]
  effect on lethality of radiation: synergistic enhancement of lethality
  optimal concentration range for enhancing lethality of X-irradiated cells: 10 to 40 µM
[2]; 10 μM for 4 hours prior to radiation
  effect on survival recovery: no affect on survival recovery
[2]; [12]
  Do: 54 ± 2 cGy
  Dq: 56 ± 4 cGy
[2]; [13]
  DER Values 1%: 3.6 ± 0.3
[2]; [14]
  DER Values 10%: 4.2 ± 0.2
[2]; 10 μM, 400 cGy
  optimal exposure time: 4 to 6 h
[2]; 10 μM, added immediately after radiation, at 10% survival levels
  dose enhancement ratios (DERs): 3.6±0.3
[2]; 400 cGy, 10 μM for 4 hours, then drug removed
  reversibility of radiosensitization: did not repair after drug removal
[2]; [15]
  dose enhancement ratios (DERs): 3.6 ± 0.3
[2]; dose not stated
  drug enhanced radiation value (DER value): 3.6
[2]; posttreatment addition
  rank among Topo I-active drugs at increasing sensitivity to X-irradiation: most effective agent

## CC[C@@]1(O)C(=O)OCc2c1cc1n(c2=O)Cc2cc3c(CN(C)C)c(O)ccc3nc2-1 [Topotecan]
[1]
  viability at 4 h, 2 µM: 95 ± 3%
  viability at 4 h, 4 µM: 92 ± 4%
  viability at 4 h, 100 µM: 63 ± 7%
[2]; [16]
  Do: 186 ± 4 cGy
  Dq: 190 ± 6 cGy
[2]; 2 μM, 4 Hr posttreatment, 1% survival
  DER Values 1%: 1.6 ± 0.4
[2]; 2 μM, 4 Hr posttreatment, 10% survival
  DER Values 10%: 1.4 ± 0.6
[2]; [17]
  Do: 132 ± 5 cGy
  Dq: 127 ± 5 cGy
[2]; [18]
  DER Values 1%: 1.7 ± 0.3
[2]; [19]
  DER Values 10%: 1.6 ± 0.2
[2]; [9]
  Do: 113 ± 2 cGy
  Dq: 100 ± 3 cGy
[2]; [10]
  DER Values 1%: 2.7 ± 0.2
[2]; [11]
  DER Values 10%: 2.2 ± 0.2
[2]; [15]
  dose enhancement ratios (DERs): 2.3 ± .02

## CC1(C)CCC2=C(O1)c1ccccc1C(=O)C2=O [β-lapachone]
[5]; DNA unwinding assay
  estimated Ki, Topo I: 150 nM
[8]
  life of Rous sarcoma virus infected chickens: prolongs the life
[4]
  viability at 4 h, 4 µM: 79 ± 4%
[2]; [17]
  Do: 154 ± 8 cGy
  Dq: 152 ± 21 cGy
[2]; [18]
  DER Values 1%: 1.4 ± 0.4
[2]; [19]
  DER Values 10%: 1.5 ± 0.3
[2]; at 4 μM, at 10% survival levels
  dose enhancement ratios (DERs): 1.4±0.4
[2]; at 4 μM, Table 3 footnote, survival level not stated
  dose enhancement ratios (DERs): 1.4 ± 0.4
